Reference: patent US9120749B2, “Quinoline derivatives and MELK inhibitors containing the same” (ONCOTHERAPY SCIENCE, INC., priority 2010, dated 2015)
Counter-ions that a name gives are not always drawn. Like-named read-outs stand apart in the source and are kept apart here.

How the values were obtained:
HT-1197 cells = experiment: Cell-based assay: anti-proliferative activity, Cell Counting Kit-8, 72 hours (HT-1197, negative control without MELK expression); details: HT1197 cells (negative control, no MELK expression), 72 hours
Procedure, shortened: (§1)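 Proliferation read with Cell Counting Kit-8 after 72 hours of inhibitor treatment, from seeding of 2,000–3,000 cells/well. Lines: T47D, A549, BT-549; HT-1197, lacking MELK by western blot, served as negative control. IC50 derived.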

A549 cells = experiment: Cell-based assay: anti-proliferative activity, Cell Counting Kit-8, 72 hours (A549); details: 72 hours
Procedure, shortened: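 Cell Counting Kit-8 read-out of A549 growth after 72 hours of inhibitor exposure, cells plated in 96-well format. Values reported as IC50.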

22Rv1 cells = experiment: Cell-based assay: anti-proliferative activity, Cell Counting Kit-8, 72 hours (22Rv1)
MELK = MELK (Homo sapiens, UniProt Q14680); experiment: Kinase assay: MELK activity, phosphorylation of FITC-labeled histone H3 peptide measured by IMAP fluorescence polarization; assay type: biochemical; details: read-out: IC50 (μM) (kinase assay)
Procedure, shortened: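 Fluorescence polarization was measured 0.5 h (room temperature) after quenching with threefold volume of progressive binding solution. Test compounds from 12.5 mM DMSO stocks were assayed at 1% DMSO.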

DU4475 cells = experiment: Cell-based assay: anti-proliferative activity, Cell Counting Kit-8, 72 hours (DU4475)
T47D cells = experiment: Cell-based assay: anti-proliferative activity, Cell Counting Kit-8, 72 hours (T47D)
Procedure, shortened: as §1

[1] = MELK kinase assay, IMAP fluorescence polarization, 50 micro-M ATP

Sequence of MELK (Q14680 whole entry, looked up): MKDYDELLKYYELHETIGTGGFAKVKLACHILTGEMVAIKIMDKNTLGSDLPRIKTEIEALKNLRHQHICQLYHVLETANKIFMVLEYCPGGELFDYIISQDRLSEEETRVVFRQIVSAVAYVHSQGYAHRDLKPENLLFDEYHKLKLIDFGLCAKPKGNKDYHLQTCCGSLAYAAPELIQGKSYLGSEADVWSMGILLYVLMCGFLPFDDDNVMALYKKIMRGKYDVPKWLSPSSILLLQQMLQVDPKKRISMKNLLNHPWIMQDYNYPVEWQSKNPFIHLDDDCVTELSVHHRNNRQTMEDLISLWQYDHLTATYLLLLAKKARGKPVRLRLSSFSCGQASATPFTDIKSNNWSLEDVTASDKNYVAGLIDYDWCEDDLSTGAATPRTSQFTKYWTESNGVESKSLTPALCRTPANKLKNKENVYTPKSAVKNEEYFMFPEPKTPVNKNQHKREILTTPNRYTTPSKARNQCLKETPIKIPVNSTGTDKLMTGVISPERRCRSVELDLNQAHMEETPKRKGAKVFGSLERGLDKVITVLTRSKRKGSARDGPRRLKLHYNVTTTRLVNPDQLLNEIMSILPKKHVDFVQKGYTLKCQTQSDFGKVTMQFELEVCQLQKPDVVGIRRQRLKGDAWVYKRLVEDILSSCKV

Row | SMILES | IC50 (HT-1197 cells; Homo sapiens, HT1197, 72 h) | IC50 (A549 cells; Homo sapiens, A549, 72 h) | IC50 (22Rv1 cells; Homo sapiens, 22Rv1, 72 h) | IC50 (MELK) | IC50 (DU4475 cells; Homo sapiens, DU-4475, 72 h) | IC50 (T47D cells; Homo sapiens, T47D, 72 h) | IC50 (MELK; [1]) | IC50 (HT-1197 cells) | IC50 (A549 cells) | IC50 (22Rv1 cells) | IC50 (DU4475 cells) | IC50 (T47D cells; 72 hours)
1 | COc1cc(-c2ccc3ncc(C(C)=O)c(N[C@H]4CC[C@H](CN5CCN(C)CC5)CC4)c3c2)cc(Cl)c1O [Example 787, 1-(6-(3-chloro-4-hydroxy-5-methoxyphenyl)-4-(1R,4R)-4-((4-methylpiperazin-1-yl)methyl)cyclohexylamino)quinolin-3-yl)ethanone hydrochloride] | 5.2 µM | 0.44 µM | 0.72 µM | 0.0058 µM | 2.7 µM | 0.48 µM | – | – | – | – | – | –
2 | CC(=O)c1cnc2ccc(-c3cc(F)c(O)c(Cl)c3)cc2c1Nc1ccc(N2CCC(N(C)C)C2)nc1 (stereo not drawn) [Example 853, 1-(6-(3-chloro-5-fluoro-4-hydroxyphenyl)-4-((6-(3-(dimethylamino)pyrrolidin-1-yl)pyridin-3-yl)amino)quinolin-3-yl)ethanone] | 10 µM | 0.45 µM | 0.65 µM | – | 0.38 µM | 0.2 µM | 0.018 µM | – | – | – | – | –
3 | COc1cc(-c2ccc3ncc(C(C)=O)c(N[C@H]4CC[C@H](CN5CCC[C@H]5CO)CC4)c3c2)cc(Cl)c1O [Example 793, 1-(6-(3-chloro-4-hydroxy-5-methoxyphenyl)-4-((1S,4r)-4-(((S)-2-(hydroxymethyl)pyrrolidin-1-yl)methyl)cyclohexylamino)quinolin-3-yl)ethanone] | 7.1 µM | 0.17 µM | 0.34 µM | 0.0018 µM | 0.33 µM | 0.15 µM | – | – | – | – | – | –
4 | CNC1CCCN(c2ccc(Nc3c(C(=O)C4CC4)cnc4ccc(-c5cc(Cl)c(O)c(Cl)c5)cc34)cn2)C1 (stereo not drawn) [Example 807, cyclopropyl(6-(3,5-dichloro-4-hydroxyphenyl)-4-((6-(3-(methylamino)piperidin-1-yl)pyridin-3-ylamino)quinolin-3-yl)methanone trihydrochloride] | 1.1 µM | 0.056 µM | 0.055 µM | 0.0015 µM | 0.032 µM | 0.058 µM | – | – | – | – | – | –
5 | O=C(c1cnc2ccc(-c3cc(F)c(O)c(F)c3)cc2c1Nc1ccc(CN2CCCC2)nc1)C1CC1 [Example 795, cyclopropyl(6-(3,5-difluoro-4-hydroxyphenyl)-4-(6-(pyrrolidin-1-ylmethyl)pyridin-3-ylamino)quinolin-3-yl)methanone] | 3.5 µM | 0.34 µM | 0.83 µM | 0.035 µM | 0.31 µM | 0.51 µM | – | – | – | – | – | –
6 | CC(=O)c1cnc2ccc(-c3cc(F)c(O)c(Cl)c3)cc2c1N[C@H]1CCC[C@@H](CN(C)C)C1 [Example 826, 1-(6-(3-chloro-5-fluoro-4-hydroxyphenyl)-4-((1S,3R)-3-((dimethylamino)methyl)cyclohexylamino)quinolin-3-yl)ethanone hydrochloride] | 1.9 µM | 0.54 µM | 0.48 µM | – | 0.22 µM | 0.25 µM | 0.0083 µM | – | – | – | – | –
7 | CC(=O)c1cnc2ccc(-c3cc(Cl)c(O)c(Cl)c3)cc2c1N[C@H]1C[C@H](CN(C)C)C1 [Example 784, 1-(6-(3,5-dichloro-4-hydroxyphenyl)-4-((1r,3r)-3-((dimethylamino)methyl)cyclobutylamino)quinolin-3-yl)ethanone] | 3.2 µM | 0.74 µM | 0.95 µM | 0.0031 µM | 0.2 µM | 0.6 µM | – | – | – | – | – | –
8 | CCN(CC)C[C@H]1CC[C@H](Nc2c(C(C)=O)cnc3ccc(-c4cc(Cl)c(O)c(Cl)c4)cc23)CC1 [Example 790] | 4.2 µM | 0.14 µM | 0.14 µM | 0.0018 µM | 0.098 µM | 0.1 µM | – | – | – | – | – | –
9 | CCN(C)C[C@H]1CC[C@H](Nc2c(C(C)=O)cnc3ccc(-c4cc(F)c(O)c(Cl)c4)cc23)CC1 [Example 845] | 1.4 µM | 0.14 µM | 0.11 µM | – | 0.069 µM | 0.063 µM | 0.00204 µM | – | – | – | – | –
10 | CC(=O)c1cnc2ccc(-c3cc(F)c(O)c(Cl)c3)cc2c1N[C@H]1CC[C@H](CN2CCC[C@H]2CO)CC1 [Example 844, 1-(6-(3-chloro-5-fluoro-4-hydroxyphenyl)-4-((1S,4r)-4-(((S)-2-(hydroxymethyl)pyrrolidin-1-yl)methyl)cyclohexylamino)quinolin-3-yl)ethanone] | 3.3 µM | 0.18 µM | 0.18 µM | – | 0.092 µM | 0.067 µM | 0.0046 µM | – | – | – | – | –
11 | CC(=O)c1cnc2ccc(-c3cc(F)c(O)c(Cl)c3)cc2c1Nc1ccc(OCCN(C)C)nc1 [Example 848, 1-(6-(3-chloro-5-fluoro-4-hydroxyphenyl)-4-(6-(2-(dimethylamino)ethoxy)pyridin-3-ylamino)quinolin-3-yl)ethanone hydrochloride] | 5.3 µM | 0.29 µM | 0.44 µM | – | 0.16 µM | 0.14 µM | 0.011 µM | – | – | – | – | –
12 | CC(=O)c1cnc2ccc(-c3cc(Cl)c(O)c(Cl)c3)cc2c1Nc1ccc(OCCN(C)C)nc1 [Example 852, 1-(6-(3,5-dichloro-4-hydroxyphenyl)-4-(6-(2-(dimethylamino)ethoxy)pyridin-3-ylamino)quinolin-3-yl)ethanone hydrochloride] | 22 µM | 0.29 µM | 0.55 µM | – | 0.088 µM | 0.16 µM | 0.0028 µM | – | – | – | – | –
13 | CC(=O)c1cnc2ccc(-c3cc(F)c(O)c(Cl)c3)cc2c1NC1CCN(CCN(C)C)CC1 [Example 821, 1-(6-(3-chloro-5-fluoro-4-hydroxyphenyl)-4-(1-(2-(dimethylamino)ethyl)piperidin-4-ylamino)quinolin-3-yl)ethanone] | 3.3 µM | 0.59 µM | 0.25 µM | – | 0.17 µM | 0.23 µM | 0.0053 µM | – | – | – | – | –
14 | CC(=O)c1cnc2ccc(-c3cc(F)c(O)c(Cl)c3)cc2c1Nc1cnn(C2CCN(C)CC2)c1 [Example 805, 1-(6-(3-chloro-5-fluoro-4-hydroxyphenyl)-4-(1-(1-methylpiperidin-4-yl)-1H-pyrazol-4-ylamino)quinolin-3-yl)ethanone hydrochloride] | 2.4 µM | 0.34 µM | 0.32 µM | 0.0028 µM | 0.11 µM | 0.17 µM | – | – | – | – | – | –
15 | CN(C)CCN1CCC(Nc2c(C(=O)C3CC3)cnc3ccc(-c4cc(Cl)c(O)c(Cl)c4)cc23)CC1 [Example 820, cyclopropyl(6-(3,5-dichloro-4-hydroxyphenyl)-4-(1-(2-(dimethylamino)ethyl)piperidin-4-ylamino)quinolin-3-yl)methanone] | – | – | – | – | – | – | 0.0018 µM | 2.9 µM | 0.46 µM | 0.82 µM | 0.15 µM | 0.32 µM
16 | COc1cc(-c2ccc3ncc(C(=O)C4CC4)c(NC4CCN(C5CCNC5)CC4)c3c2)cc(Cl)c1O (stereo not drawn) [Example 764, (6-(3-chloro-4-hydroxy-5-methoxyphenyl)-4-(1-(pyrrolidin-3-yl)piperidin-4-ylamino)quinolin-3-yl)(cyclopropyl)methanone] | 5.3 µM | 1.3 µM | 0.95 µM | 0.0029 µM | 0.18 µM | 0.18 µM | – | – | – | – | – | –
17 | CCC(=O)c1cnc2ccc(-c3cc(F)c(O)c(Cl)c3)cc2c1Nc1ccc(N2CCC(N(C)C)C2)nc1 (stereo not drawn) [Example 860, 1-(6-(3-chloro-5-fluoro-4-hydroxyphenyl)-4-((6-(3-(dimethylamino)pyrrolidin-1-yl)pyridin-3-yl)amino)quinolin-3-yl)propan-1-one] | 3.6 µM | 0.29 µM | 0.45 µM | – | 0.24 µM | 0.14 µM | 0.0062 µM | – | – | – | – | –
